Key:
[1] = target: T1, A2A receptor (Homo sapiens, UniProt P29274); assay: Inhibition of cAMP production in HEK cells; type: cell-based; details: HEK-293 cells with A2A receptor
[2] = in vitro; details: human, Caco-2, pH 7.4
[3] = target: T1, A2A receptor; assay: Human IL-2 T cell assay (restoration of IL-2 production in CGS-21680-treated CD3+ T cells); type: cell-based; set-up: endogenous in cells; host or cells: human CD3+ T cells isolated from venous blood of healthy volunteers
Source text: When T-cells are activated, they produce pro-inflammatory cytokines. When the A2A receptor is activated in T cells, the amount of cytokines produced in response to stimulation of T-cells is reduced.
Venous blood from healthy volunteers, all of whom signed an informed consent approved by the Ethics Committee (FOR-UIC-BV-050-01-01 ICF_HBS_HD Version 5.0), was obtained via ImmuneHealth (Centre Hospitalier Universitaire Tivoli, La Louviere, Belgium). Mononuclear cells were collected by density gradient centrifugation, using SepMate-50 tubes (StemCell Technologies, Grenoble, France) and Lymphoprep (Axis-shield, Oslo, Norway) according to the manufacturer's instructions. CD3+ T cells were isolated by immunomagnetic negative selection, using the EasySep Human T Cell Isolation Kit (StemCell Technologies) as per manufacturer's instructions. CD3+ T cells were stored in heat inactivated foetal bovine serum (hiFBS; Gibco, ThermoFisher Scientific, Merelbeke, Belgium) containing 10% DMSO in liquid nitrogen.
Human purified CD3+ T cells were thawed and washed twice with RPMI1640 medium (with UltraGlutamine; Lonza, Verviers, Belgium) supplemented with 1× non-essential amino acids (Lonza), 2% Pen/Strep (Lonza) and 1 mM Sodium Pyruvate (Gibco) (complete media), containing 10% hiFBS. The cells were suspended either in complete media containing 20% hiFBS or in 100% heat inactivated human serum (hiHS; Sigma-Aldrich, Diegem, Belgium). Cells were activated by adding anti-CD3 and anti-CD28 coated microbeads (Dynabeads human T-activator CD3/CD28; Life Technologies, Paisley, UK), suspended either in complete media containing 20% hiFBS or in 100% hiHS. […] Serial dilutions of the compounds of the present invention were prepared and added to the wells. The cells were placed in a 37° C. humidified tissue culture incubator with 5% CO2 for 72 hours. After 72 hours, supernatants were sampled and IL-2 was quantified using the IL-2 (human) AlphaLISA Biotin-Free Detection Kit (AL333F; Perkin-Elmer, Zaventem, Belgium), according to the manufacturer's instructions.

[4] = IC50 (nM) (3 nM NECA as agonist, 0.1% BSA), 3 nM NECA as agonist, 0.1% BSA
[5] = IC50 (nM) (5 nM NECA as agonist, 2% HSA), 5 nM NECA as agonist, 2% HSA
[6] = IC50 (nM) (5 μM Adenosine as agonist, 2.0% HSA), 5 μM Adenosine as agonist, 2.0% HSA
[7] = IC50 (nM) (5000 nM CGS-21680 as agonist, 50% HSA), restoration of IL-2 production, human CD3+ T cells, anti-CD3/CD28 beads, 5000 nM CGS-21680, 50% HSA, 72 hours
[8] = IC50 (nM) (500 nM CGS-21680 as agonist, 10% FBS), restoration of IL-2 production, human CD3+ T cells, anti-CD3/CD28 beads, 500 nM CGS-21680, 10% FBS, 72 hours
[9] = IC50 (nM) (500 nM CGS-21680 as agonist, 50% HSA), restoration of IL-2 production, human CD3+ T cells, anti-CD3/CD28 beads, 500 nM CGS-21680, 50% HSA, 72 hours

T1 sequence (P29274 whole entry): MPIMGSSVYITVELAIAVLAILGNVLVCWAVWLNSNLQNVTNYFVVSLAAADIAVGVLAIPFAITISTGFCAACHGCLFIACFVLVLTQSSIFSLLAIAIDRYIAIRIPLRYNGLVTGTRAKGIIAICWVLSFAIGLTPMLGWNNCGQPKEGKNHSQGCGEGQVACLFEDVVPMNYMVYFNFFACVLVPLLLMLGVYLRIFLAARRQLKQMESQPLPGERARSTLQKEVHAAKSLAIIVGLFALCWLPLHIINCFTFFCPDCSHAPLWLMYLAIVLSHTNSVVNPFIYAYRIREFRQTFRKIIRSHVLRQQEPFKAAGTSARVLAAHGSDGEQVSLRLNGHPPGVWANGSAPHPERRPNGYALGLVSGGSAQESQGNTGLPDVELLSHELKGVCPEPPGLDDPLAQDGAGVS

SMILES	IC50 [1, 4]	IC50 [1, 5]	IC50 [1, 6]	efflux ratio at 120 min, 2 μM [2]	IC50 [3, 7]	IC50 [3, 8]	IC50 [3]	IC50 [3, 9]
Nc1nc2c(sc(=O)n2CCN2CCN(c3ccc(OCc4c[nH]nn4)cc3F)CC2)c2nc(-c3ccco3)nn12 [Compound 1, 3-(2-(4-(4-((1H-1,2,3-triazol-4-yl)methoxy)-2-fluorophenyl)-piperazin-1-yl)ethyl)-5-amino-8-(furan-2-yl)thiazolo[5,4-e][1,2,4]triazolo[1,5-c]pyrimidin-2(3H)-one]	0.6 nM	9 nM	511 nM	48	120 nM	–	–	–
Nc1nc2c(sc(=O)n2CCN2CCN(c3ccc(OCc4n[nH]c(=O)o4)cc3F)CC2)c2nc(-c3ccco3)nn12 [Compound 2, 5-((4-(4-(2-(5-amino-8-(furan-2-yl)-2-oxothiazolo[5,4-e][1,2,4]triazolo[1,5-c]pyrimidin-3(2H)-yl)ethyl)piperazin-1-yl)-3-fluorophenoxy)methyl)-1,3,4-oxadiazol-2(3H)-one]	0.3 nM	17 nM	708 nM	28	18 nM	0.9 nM	–	–
CNCCNC(=O)c1ccc(N2CCN(CCn3c(=O)sc4c3nc(N)n3nc(-c5ccco5)nc43)CC2)c(F)c1 [Compound 31, 4-(4-(2-(5-amino-8-(furan-2-yl)-2-oxothiazolo[5,4-e][1,2,4]triazolo[1,5-c]pyrimidin-3(2H)-yl)ethyl)piperazin-1-yl)-3-fluoro-N-(2-(methylamino)ethyl)benzamide]	0.4 nM	1 nM	42 nM	28	14 nM	2.1 nM	8.3 nM	5.4 nM
CN(C)CCNC(=O)c1ccc(N2CCN(CCn3c(=O)sc4c3nc(N)n3nc(-c5ccco5)nc43)CC2)c(F)c1 [Compound 32, 4-(4-(2-(5-amino-8-(furan-2-yl)-2-oxothiazolo[5,4-e][1,2,4]triazolo[1,5-c]pyrimidin-3(2H)-yl)ethyl)piperazin-1-yl)-N-(2-(dimethylamino)ethyl)-3-fluorobenzamide]	4.3 nM	7 nM	356 nM	329	28 nM	–	–	–
Nc1nc2c(sc(=O)n2CCN2CCN(c3ccc(OCC(=O)O)cc3F)CC2)c2nc(-c3ccco3)nn12 [Compound 35, 2-(4-(4-(2-(5-amino-8-(furan-2-yl)-2-oxothiazolo[5,4-e][1,2,4]triazolo[1,5-c]pyrimidin-3(2H)-yl)ethyl)piperazin-1-yl)-3-fluorophenoxy)acetic acid]	0.7 nM	13 nM	378 nM	26	84 nM	0.6 nM	3.9 nM	0.5 nM
Nc1nc2c(sc(=O)n2CCN2CCN(c3cc(O[C@H]4CC[S@+]([O-])CC4)c(F)cc3F)CC2)c2nc(-c3ccco3)nn12 [Compound 112, 5-amino-3-(2-(4-(2,4-difluoro-5-(((1r,4r)-1-oxidotetrahydro-2H-thiopyran-4-yl)oxy)phenyl)piperazin-1-yl)ethyl)-8-(furan-2-yl)thiazolo[5,4-e][1,2,4]triazolo[1,5-c]pyrimidin-2(3H)-one]	0.8 nM	–	53 nM	605	–	–	–	–
C[S@+]([O-])CCNC(=O)c1cc(N2CCN(CCn3c(=O)sc4c3nc(N)n3nc(-c5ccco5)nc43)CC2)c(F)cc1F [Compound 113, (S)-5-(4-(2-(5-amino-8-(furan-2-yl)-2-oxothiazolo[5,4-e][1,2,4]triazolo[1,5-c]pyrimidin-3(2H)-yl)ethyl)piperazin-1-yl)-2,4-difluoro-N-(2-(methylsulfinyl)ethyl)benzamide]	0.4 nM	–	37 nM	374	–	–	–	–
C[S@@+]([O-])CCNC(=O)c1cc(N2CCN(CCn3c(=O)sc4c3nc(N)n3nc(-c5ccco5)nc43)CC2)c(F)cc1F [Compound 114, (R)-5-(4-(2-(5-amino-8-(furan-2-yl)-2-oxothiazolo[5,4-e][1,2,4]triazolo[1,5-c]pyrimidin-3(2H)-yl)ethyl)piperazin-1-yl)-2,4-difluoro-N-(2-(methylsulfinyl)ethyl)benzamide]	0.3 nM	–	80 nM	403	–	–	–	–
CN(CC[S@@+](C)[O-])C(=O)c1cc(N2CCN(CCn3c(=O)sc4c3nc(N)n3nc(-c5ccco5)nc43)CC2)c(F)cc1F [Compound 116, (R)-5-(4-(2-(5-amino-8-(furan-2-yl)-2-oxothiazolo[5,4-e][1,2,4]triazolo[1,5-c]pyrimidin-3(2H)-yl)ethyl)piperazin-1-yl)-2,4-difluoro-N-methyl-N-(2-(methylsulfinyl)ethyl)benzamide]	1.2 nM	–	245 nM	421	–	–	–	–
Nc1nc2c(sc(=O)n2CCN2CCN(c3cc(C(=O)N4CC[S+]([O-])CC4)c(F)cc3F)CC2)c2nc(-c3ccco3)nn12 [Compound 117, 5-amino-3-(2-(4-(2,4-difluoro-5-(1-oxidothiomorpholine-4-carbonyl)phenyl)piperazin-1-yl)ethyl)-8-(furan-2-yl)thiazolo[5,4-e][1,2,4]triazolo[1,5-c]pyrimidin-2(3H)-one]	329 nM	–	3160 nM	12	–	–	–	–
C[S@+]([O-])CCNC(=O)c1ccc(N2CCN(CCn3c(=O)sc4c3nc(N)n3nc(-c5ccco5)nc43)CC2)c(F)c1 [Compound 123, (S)-4-(4-(2-(5-amino-8-(furan-2-yl)-2-oxothiazolo[5,4-e][1,2,4]triazolo[1,5-c]pyrimidin-3(2H)-yl)ethyl)piperazin-1-yl)-3-fluoro-N-(2-(methylsulfinyl)ethyl)benzamide]	1.5 nM	–	1440 nM	120	–	–	–	–
C[S@@+]([O-])CCNC(=O)c1ccc(N2CCN(CCn3c(=O)sc4c3nc(N)n3nc(-c5ccco5)nc43)CC2)c(F)c1 [Compound 124, (R)-4-(4-(2-(5-amino-8-(furan-2-yl)-2-oxothiazolo[5,4-e][1,2,4]triazolo[1,5-c]pyrimidin-3(2H)-yl)ethyl)piperazin-1-yl)-3-fluoro-N-(2-(methylsulfinyl)ethyl)benzamide]	2.3 nM	–	2040 nM	54	–	–	–	–
Nc1nc2c(sc(=O)n2CCN2CCN(c3ccc(C(=O)N4CC[S+]([O-])CC4)cc3F)CC2)c2nc(-c3ccco3)nn12 [Compound 125, 5-amino-3-(2-(4-(2-fluoro-4-(1-oxidothiomorpholine-4-carbonyl)phenyl)piperazin-1-yl)ethyl)-8-(furan-2-yl)thiazolo[5,4-e][1,2,4]triazolo[1,5-c]pyrimidin-2(3H)-one]	2.6 nM	–	3620 nM	127	–	–	–	–
Nc1nc2c(sc(=O)n2CCN2CCN(c3ccc(N4CC[S+]([O-])CC4)cc3F)CC2)c2nc(-c3ccco3)nn12 [Compound 126, 5-amino-3-(2-(4-(2-fluoro-4-(1-oxidothiomorpholino)phenyl)piperazin-1-yl)ethyl)-8-(furan-2-yl)thiazolo[5,4-e][1,2,4]triazolo[1,5-c]pyrimidin-2(3H)-one]	0.6 nM	–	78 nM	83	–	–	–	–
Nc1nc2c(sc(=O)n2CCN2CCN(c3cc(OC[C@H](O)CO)c(F)cc3F)CC2)c2nc(-c3ccco3)nn12 [Compound 128, (R)-5-amino-3-(2-(4-(5-(2,3-dihydroxypropoxy)-2,4-difluorophenyl)piperazin-1-yl)ethyl)-8-(furan-2-yl)thiazolo[5,4-e][1,2,4]triazolo[1,5-c]pyrimidin-2(3H)-one]	0.4 nM	–	46 nM	419	–	–	–	–
